The test system of the experiment is K562. Nature of the experiment: Induction of cell cycle arrest in human K562 cells assessed as increase in accumulation at G0/G1 phase at 2.5 uM after 4 hrs by flow cytometric analysis (reference value: 19.2%). The format is functional. In general terms: A flow cytometer gives signals particle by particle.

Structures are written as SMILES.

For `N[C@H]1CCN(C(=O)c2cc3c(O)c4c(c(O)c3s2)C(=O)c2ccccc2C4=O)C1`, the Activity came out at 28.1%.
